{"source": "patent US7342137B1", "about": "“Cyclohexenone compounds from Antrodia camphorata and application thereof” (Golden Biotechnology Corporation, priority 2007, dated 2008)", "assay_type_in_all_cases": "cell-based", "key": {"[1]": {"tested_on": "human hepatic-cancer cells, Hep 3B", "experiment": "In vitro survival assay (MTT), hepatic cancer cells Hep 3B", "details": "Hep3B, 48 hours incubation", "description": "(§1) The NCI anti-cancer drug screen model was also adopted to test the anti-cancer effect of the compound isolated from example 1 in the present invention. The isolated compound of 4-hydroxy-2,3-dimethoxy-6-methyl-5(3,7,11-trimethyl-dodeca-2,6,10-trienyl)-cyclohex-2-enone from example 1 was added into the culture media of human hepatic-cancer cells, Hep 3B or Hep G2, for tumor cell survival assay.\n(§2) The human hepatic-cancer cells, Hep 3B and Hep G2, were separately cultivated in media containing fetal calf serum for 24 hours. The proliferated cells were washed once with PBS, then treated with 1× trypsin-EDTA and centrifuged at 1200 rpm for 5 minutes. The supernatant was discarded and the cell pellet was resuspended in 10 ml of fresh culture medium by gently shaking. The cells were placed in a 96-well plate. Ethanol extracts of Antrodia camphorata (the control group, total extracts of Antrodia camphorata without purification) were added into each of the 96 wells at the following concentrations: 30, 10, 3, 1, 0.3, 0.1 and 0.03 μg/ml, respectively, while 4-hydroxy-2,3-dimethoxy-6-methyl-5(3,7,11-trimethyl-dodeca-2,6,10-trienyl)-cyclohex-2-enone (the experiment group) were added into each of the 96 wells at the following concentrations: 30, 10, 3, 1, 0.3, 0.1 and 0.03 μg/ml, respectively. […] The plates were read on an ELISA reader at wavelength of 570 nm to determine the survival rates."}, "[2]": {"tested_on": "human prostate cancer cells, DU-145", "experiment": "In vitro survival assay (MTT), prostate cancer cells DU-145", "details": "48 hours incubation", "description": "as §1, with “prostate cancer” for “hepatic-cancer”, “LNCaP” for “Hep 3B”, “DU-145,” for “Hep G2,”\nas §2, with “LNCaP” for “Hep 3B”, “DU-145,” for “Hep G2,”, “or” for “were added into each of the 96 wells at the following concentrations: 30, 10, 3, 1, 0.3, 0.1 and 0.03 μg/ml, respectively, while”, “respectively. The cells were incubated at 37° C. in a 5% CO2 incubator for 48 hours.” for “respectively.”"}, "[3]": {"tested_on": "human hepatic-cancer cells, Hep G2", "experiment": "In vitro survival assay (MTT), hepatic cancer cells Hep G2", "details": "HepG2, 48 hours incubation", "description": "as §1, §2"}, "[4]": {"tested_on": "human breast-cancer cells, MCF-7", "experiment": "In vitro survival assay (MTT), breast cancer cells MCF-7", "details": "MCF7, 48 hours incubation", "description": "The NCI anti-cancer drug screen model was adopted to test the anti-cancer effect of the compound from example 1 in the invention. The isolated compound of 4-hydroxy-2,3-dimethoxy-6-methyl-5(3,7,11-trimethyl-dodeca-2,6,10-trienyl)-cyclohex-2-enone from example 1 was added into the culture media of human breast-cancer cells, MCF-7 or MDA-MB-231, for tumor cell survival assay. This assay can be tested with 3-[4,5-dimethylthiazol-2-yl]2,5-diphenyltetrazolium bromide (MTT) assay, which is commonly used to determine cell proliferation, percent of viable cells, and cytotoxicity. MTT is a yellow dye, which can be absorbed by the living cells and be reduced to purplish blue formazan crystals by succinate tetrazolium reductase in mitochondria. Formazan formation can therefore be used to assess and determine the survival rate of cells.\nThe human breast-cancer cells, MCF-7 and MDA-MB-231 were separately cultivated in media containing fetal calf serum for 24 hours. The proliferated cells were washed once with PBS, then treated with 1× trypsin-EDTA and centrifuged at 1200 rpm for 5 minutes. The supernatant was discarded and the cell pellet was resuspended in 10 ml of fresh culture medium by gently shaking. The cells were placed in a 96-well plate. […] The plates were read on an ELISA reader at wavelength of 570 nm to determine the survival rates."}, "[5]": {"tested_on": "human breast-cancer cells, MDA-MB-231", "experiment": "In vitro Taxol add-on study (MTT), MDA-MB-231", "details": "Homo sapiens, 0.0017 μg/ml Taxol + formula 2", "description": "The experiment was also carried out according to NCI anti-cancer drug screen in vitro model. The human breast-cancer cells, MCF-7 and MDA-MB-231 were separately cultivated in media containing fetal calf serum for 24 hours. The proliferated cells were washed once with PBS, then treated with 1× trypsin-EDTA and centrifuged at 1200 rpm for 5 minutes. The supernatant was discarded and the cell pellet was resuspended in 10 ml of fresh culture medium by gently shaking. The cells were placed in a 96-well plate after 0.0017 μg/ml Taxol was added and treated for 72 hours. 4-hydroxy-2,3-dimethoxy-6-methyl-5(3,7,11-trimethyl-dodeca-2,6,10-trienyl)-cyclohex-2-enone obtained from example 1 were added respectively into each of the 96 wells at the following concentrations: 0 μg/ml (the control group); 30, 10, 3, 1, 0.3, 0.1 and 0.03 μg/ml (the experiment group). The cells were incubated at 37° C. in a 5% CO2 incubator for 48 hours. MTT was added in a concentration of 2.5 mg/ml into each well in dark and reacted for 4 hours, followed by the addition of 100 μl of lysis buffer to terminate the reaction. The plates were read on an ELISA reader at wavelength of 570 nm to determine the survival rates."}}, "data": [{"smiles": "COC1=C(OC)C(O)C(C/C=C(\\C)CC/C=C(\\C)CCC=C(C)C)C(C)C1=O", "note": "(centres unmarked) [formula 2, 4-hydroxy-2,3-dimethoxy-6-methyl-5(3,7,11-trimethyl-dodeca-2,6,10-trienyl)-cyclohex-2-enone]", "values": [{"measurement": "IC50", "setting": "[1]", "value": 0.005, "unit": "µg/mL"}, {"measurement": "IC50", "setting": "[2]", "value": 1.81, "unit": "µg/mL"}, {"measurement": "IC50", "setting": "[3]", "value": 1.68, "unit": "µg/mL"}, {"measurement": "IC50", "setting": "[4]", "value": 0.852, "unit": "µg/mL"}, {"measurement": "IC50", "setting": "[5]", "value": 0.011, "unit": "µg/mL"}]}]}
